Results reported in patent US20050170028A1, “Polysaccharide extract from Lycium barbarum as neuroprotective agent against beta-amyloid peptide neurotoxicity” (priority 2004, published 2005).

How the values were obtained:
Assay type in all cases: cell-based
caspase-3 = assay: colorimetric caspase-3 activity assay in neurons exposed to Aβ-peptide
Procedure: Caspase-3 has long been regarded as an index for neuronal apoptosis. Therefore, the colorimetric caspase-3 activity assay was performed at the concentrations stated in FIG. 5, and neuronal apoptosis was determined by the colorimetric caspase-3 activity assay by measuring the absorbance (at 405 nm) of the yellow product (pNA) cleaved from the substrate. Results (***p<0.001 vs. the group treated with Aβ-peptide alone, by one-way ANOVA, Tukey test) are expressed as mean±SE from at least three independent experiments.
Caspase-3 is a general apoptosis marker. For apoptosis analysis, the colorimetric caspase-3 activity assay (at 405 nm) was performed.
It is also a well-known Western medicine for the treatment of manic-depressive bi-polar disorder. […] Neurons were pretreated with either LiCl (2 mM to 20 mM) or LBA (0.1 μg/ml to 500μ/ml) for 1 hour, and then exposed to Aβ25-35 peptide (25 μM) for 24 hours. Caspase-3 activity assay was used to determine the protective effects against Aβ-peptide toxicity. […] The unit of concentration of LiCl was converted from mM to μ/ml for the purpose of comparison with LBA. […] The toxicity decreased when the concentration of LiCi increased and it reached the lowest value (8.5%) when LiCi was used at 850 μ/ml (20 mM). Accordingly, LiCl could effectively reduce Aβ-peptide-stimulated caspase-3 activity in the range of 340 μg/ml to 850 μg/ml (i.e. 8 mM to 20 mM). LBA exerted protective effects for neurons against Aβ-peptide toxicity from very low concentration to high concentration (0.1 μg/ml to 500 μg/ml).
It has been reported that specific inhibitor of JNK, SP600125, also exerts protection for neurons against Aβ-peptide toxicity. We therefore compared the therapeutic window of SP600125 with LBA to elucidate their effectiveness in neuroprotection. Neurons were pretreated with either SP600125 (5 μM to 20 μM) or LBA (0.1 μg/ml to 500 μg/ml) for 1 hour, and then exposed to Aβ-peptide (25 μM) for 16 hours. Caspase-3 activity assay was done to investigate their protective effects against Aβ-peptide toxicity. Thus, after treatment, colorimetric caspase-3 activity assay was done to examine the level of apoptosis. Caspase-3 activity was expressed as % toxicity. Results are expressed as mean±SE from at least three independent experiments. % toxicity is calculated as: (s.a.of Aβ-/LBA-/SP-treated−s.a.control)÷(s.a.Aβ-treated−s.a.control). […] The unit of concentration of SP600125 was converted from […] to μg/ml for the purpose of comparison with LBA. […] The toxicity was 100% when using SP600125 at more than 20 μM (data not shown). SP600125 was effective from 1.1 μg/ml to 4.4 μ/ml; the range is very narrow when compared with that of LBA.
(§1) We separated different fractions by ion-exchange chromatography. Activity of caspase-3 served as an index for neuronal apoptosis. […] The biochemical analysis of caspase-3 activity was confirmed by morphological examination (FIG. 17). Upon exposure to Aβ peptide, neurites were broken and neurons were undergoing apoptosis.
For apoptosis analysis, the activity of caspase-3 serves as an index for neuronal apoptosis. […] A hundred microgram per […] exerted a nearly 100% neuroprotective effects (FIG. 20).

[1] = tested on: neurons exposed to Aβ25-35 peptide; assay: LDH release cytotoxicity assay in neurons exposed to Aβ-peptide; settings: Aβ25-35 peptide 25 μM alone, 24 h; control 24.7±0.45%; mean±SE
Procedure: To examine the effects of the aqueous extract LBA from Lycium barbarum on Aβ-peptide-induced neurotoxicity, neurons were pretreated with LBA (ranging from 0.1 μg/ml to 500 μg/ml) for 1 hour, followed by a 24-hour exposure to Aβ25-35 peptide (25 μM). For cytotoxicity analysis, the extracellular concentration of LDH was measured. […] For the control group, the release of LDH representing natural neuronal death was 24.7±0.45% of the total LDH release. Neurons exposed to Aβ-peptide increased the release of LDH to 38.0±0.92%.
The effects of the basic extract LBB from Lycium barbarum on Aβ-peptide-induced neurotoxicity were also investigated using the same approaches as for LBA. For cytotoxicity analysis, the extracellular concentration of LDH was measured.

caspase-2 = assay: colorimetric caspase-2 activity assay in neurons exposed to Aβ-peptide; settings: Aβ-peptide alone
Text: Caspase-2 is an important index for neuronal apoptosis for β-amyloid peptide neurotoxicity. It has been reported that Aβ-peptide triggered activation of caspase-2. […] Therefore, we used the colorimetric method to determine caspase-2 activity. For caspase-2 activity, the trend was similar to that of caspase-3. Neurons exposed to Aβ-peptide triggered a 1.6-fold increase in caspase-2 activity.
Caspase-2 is an important index for neuronal apoptosis for β-amyloid peptide neurotoxicity. For caspase-2 activity, the trend was similar to that of caspase-3. We also used colorimetric method to determine caspase-2 activity.

[2] = tested on: neurons exposed to Aβ peptide; assay: morphological changes of neurons exposed to Aβ-peptide; settings: LBA 100 μg/ml, LBB 500 μg/ml, heparin 1 μM; 1 h, then Aβ peptide 25 μM 24 h
Procedure: Since LBA and LBB contain both carbohydrate and amino acid, we use heparin to make a comparison of their protective effects. Neurons were pre-incubated with either heparin (1 μM), LBA (100 μg/ml) or LBB (500 μg/ml) for 1 hour, followed by a 24-hour exposure to Aβ peptide (25 μM). The morphology of neurons after different treatments is shown in FIG. 12, in which (A) Control, (B) Aβ-peptide alone, (C) LBA (100 μg/ml), (D) LBA (100 μg/ml)+Aβ, (E) LBB (500 μg/ml), (F) LBB (500 μg/ml)+Aβ, (G) Heparin (1 μM) and (H) Heparin (1 μM)+Aβ. […] In B, neurons treated with Aβ-peptide for 24 hours undergo apoptosis, as shown by the destruction of the fine neurite network. […] G and H were neurons pre-incubated with heparin, and then without and with Aβ-peptide exposure. […] Based on the morphology of neurons, the mode of neuroprotection of LBA and LBB is somewhat different to that of heparin.
as §1

[Cl-].[Li+] [LiCl, Lithium Chloride]
caspase-3 activity as percent toxicity (caspase-3; 850 μ/ml (20 mM), 1 h pretreatment, Aβ25-35 25 μM 24 h, lowest value): 8.5% | toxicity to neurons (caspase-3 percent toxicity) (caspase-3; about 85 μg/ml (2 mM), Aβ25-35 25 μM 24 h): toxic to neurons

Oc1c2ccccc2c2c3c(cccc13)N=N2 [SP600125]
caspase-3 activity as % toxicity (caspase-3; 1.1 μg/ml (5 μM), 1 h pretreatment, Aβ-peptide 25 μM 16 h): 23.8% | caspase-3 activity as % toxicity (caspase-3; 4.4 μg/ml (20 μM), 1 h pretreatment, Aβ-peptide 25 μM 16 h): 69.3% | caspase-3 activity as % toxicity (caspase-3; more than 20 μM, data not shown): 100%

Aβ-peptide: β-amyloid peptide fragment 25-35 used at 25 μM as the neurotoxic challenge (GSNKGAIIGLM; Amyloid-beta protein 42; UniProt P05067 696-706, looked up, fragment)
release of LDH, percentage of total LDH release [1]: 38.0±0.92% | caspase-3 activity (caspase-3; Aβ-peptide treated group, no extract): 2.13 fold | caspase-2 activity (caspase-2): 1.6 fold

heparin
morphology of neurons after pre-incubation and Aβ peptide [2]: elongated neurons
